Counter-ions that a name gives are not always drawn. Like-named read-outs stand apart in the source and are kept apart here.
Legend:
[1] = molecular target: T1, human NTCP (Homo sapiens, UniProt Q14973); assay: Screening fluorescent competitive Myrcludex B-FITC binding assay (96-well, 10 µM drug)
T1 sequence (Q14973 1-349): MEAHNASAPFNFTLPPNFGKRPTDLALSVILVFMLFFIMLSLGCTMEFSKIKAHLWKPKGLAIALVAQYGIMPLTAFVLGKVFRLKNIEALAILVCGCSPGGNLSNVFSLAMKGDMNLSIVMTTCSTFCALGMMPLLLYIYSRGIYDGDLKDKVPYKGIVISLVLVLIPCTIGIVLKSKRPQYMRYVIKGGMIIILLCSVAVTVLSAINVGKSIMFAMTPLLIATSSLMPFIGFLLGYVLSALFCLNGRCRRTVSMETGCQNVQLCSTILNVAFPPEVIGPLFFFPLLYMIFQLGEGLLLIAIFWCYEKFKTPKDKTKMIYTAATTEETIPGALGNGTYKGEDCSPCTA

[2] = molecular target: T1, human NTCP; assay: Screening taurocholate uptake assay (96-well, [14C]taurocholate, 10 µM drug)
[3] = screen, 10 µM drug, Myrcludex B-FITC binding
[4] = combined ranking from functional and binding screening assays
[5] = screen, 10 µM drug, taurocholate uptake
[6] = Prestwick library screen, Myrcludex B-FITC binding, 10 µM drug
[7] = Prestwick library screen, taurocholate uptake, 10 µM drug
[8] = ranking score beside the functional and binding assay B-scores of the screen
[9] = Prestwick library screen, 10 µM drug, B-score of Myrcludex B-FITC binding
[10] = Prestwick library screen, 10 µM drug, B-score of taurocholate uptake
[11] = combined ranking from functional and binding assay B-scores

## c1ccc(CNc2ncnc3[nH]cnc23)cc1 [Aminopurine, 6-benzyl]
[1]; [3]
  B-score binding assay: -1.308
[2]; [4]
  Ranking score: 337.92
[2]; [5]
  B-score functional assay: -0.027

## CCCCc1oc2ccccc2c1C(=O)c1cc(I)c(OCCN(CC)CC)c(I)c1 [Amiodarone hydrochloride]
[1]; [6]
  B-score binding assay: 1.025
[2]; [7]
  B-score functional assay: 0.027
[2]; [8]
  Ranking score: 845.421

## CN(C)CCCO[C@@H]1[C@H]2OC(C)(C)O[C@H]2O[C@@H]1[C@H](O)CO [Amiprilose hydrochloride]
[1]; [6]
  B-score binding assay: 0.378
[2]; [7]
  B-score functional assay: 0.017
[2]; [8]
  Ranking score: 760.053

## CCN1CCCC1CNC(=O)c1cc(S(=O)(=O)CC)c(N)cc1OC (stereo not drawn) [Amisulpride]
[1]; [9]
  B-score binding assay: 0.863
[2]; [10]
  B-score functional assay: 0.107
[2]; [11]
  Ranking score: 873.097

## CN(C)CCC=C1c2ccccc2CCc2ccccc21.Cl [Amitryptiline hydrochloride]
[1]; [6]
  B-score binding assay: 2.835
[2]; [7]
  B-score functional assay: -0.217
[2]; [8]
  Ranking score: 769.935

## CCOC(=O)C1=C(COCCN)NC(C)=C(C(=O)OC)C1c1ccccc1Cl (stereo not drawn) [Amlodipine]
[1]; [9]
  B-score binding assay: 2.427
[2]; [10]
  B-score functional assay: 0.5
[2]; [11]
  Ranking score: 1057.69

## CCN(CC)Cc1cc(Nc2ccnc3cc(Cl)ccc23)ccc1O.Cl.Cl.O.O [Amodiaquin dihydrochloride dihydrate]
[1]; [6]
  B-score binding assay: 1.445
[2]; [7]
  B-score functional assay: -0.477
[2]; [8]
  Ranking score: 658.143

## Cc1c(N)c(=O)n(-c2ccccc2)n1C [Ampyrone]
[1]
  B-score binding assay: 0.217
[2]
  B-score functional assay: 0.135
  Ranking score: 788.348

## Nc1cc(-c2ccncc2)c[nH]c1=O [Amrinone]
[1]; [3]
  B-score binding assay: -0.056
[2]; [4]
  Ranking score: 350.268
[2]; [5]
  B-score functional assay: -1.236

## O=C1CN2Cc3c(ccc(Cl)c3Cl)N=C2N1 [Anagrelide]
[1]; [9]
  B-score binding assay: 0.622
[2]; [10]
  B-score functional assay: 0.197
[2]; [11]
  Ranking score: 871.654

## C[C@]12CC[C@@H](O)C[C@@H]1CC[C@@H]1[C@@H]2CC[C@]2(C)C(=O)CC[C@@H]12 [Androsterone]
[1]
  B-score binding assay: 1.069
[2]
  B-score functional assay: 0.451
  Ranking score: 969.912

## COc1ccc(-c2cc(=S)ss2)cc1 [Anethole-trithione]
[1]; [6]
  B-score binding assay: -0.048
[2]; [7]
  B-score functional assay: 0.437
[2]; [8]
  Ranking score: 719.937

## COc1ccc(C(=O)N2CCCC2=O)cc1 [Aniracetam]
[1]; [3]
  B-score binding assay: -0.157
[2]; [4]
  Ranking score: 340.074
[2]; [5]
  B-score functional assay: -1.196

## c1ccc(CN(CC2=NCCN2)c2ccccc2)cc1 [Antazoline hydrochloride]
[1]; [9]
  B-score binding assay: 0.166
[2]; [10]
  B-score functional assay: 1.194
[2]; [11]
  Ranking score: 927.719

## CN[C@@H]1[C@@H](O[C@H]2O[C@H](CO)[C@@H](N)[C@H](O)[C@H]2O)OC2C[C@@H](N)[C@@H](O[C@H]3[C@H](O)[C@@H](O)[C@H](N)C[C@@H]3N)OC2[C@@H]1O (stereo partly drawn) [Apramycin]
[1]; [3]
  B-score binding assay: -0.447
[2]; [4]
  Ranking score: 397.98
[2]; [5]
  B-score functional assay: -0.431

## OC[C@H]1O[C@@H](Oc2ccc(O)cc2)[C@H](O)[C@@H](O)[C@@H]1O [Arbutin]
[1]; [9]
  B-score binding assay: 0.372
[2]; [10]
  B-score functional assay: 0.864
[2]; [11]
  Ranking score: 944.447

## CC1CNc2c(cccc2S(=O)(=O)N[C@@H](CCCNC(=N)N)C(=O)N2CC[C@@H](C)C[C@@H]2C(=O)O)C1 (stereo partly drawn) [Argatroban]
[1]; [6]
  B-score binding assay: 0.437
[2]; [7]
  B-score functional assay: -0.168
[2]; [8]
  Ranking score: 668.874

## C[C@@H]1CC[C@H]2[C@@H](C)C(=O)O[C@@H]3O[C@@]4(C)CC[C@@H]1[C@]32OO4 [Artemisinin]
[1]; [6]
  B-score binding assay: -0.138
[2]; [7]
  B-score functional assay: 0.234
[2]; [8]
  Ranking score: 655.672

## CCCNC(C)C(=O)Nc1c(C)csc1C(=O)OC (stereo not drawn) [Articaine hydrochloride]
[1]; [3]
  B-score binding assay: 0.267
[2]; [4]
  Ranking score: 451.414
[2]; [5]
  B-score functional assay: -1.04

## O=C1O[C@H]([C@@H](O)CO)C(O)=C1O [Ascorbic acid]
[1]; [3]
  B-score binding assay: 0.271
[2]; [4]
  Ranking score: 365.334
[2]; [5]
  B-score functional assay: -1.672

## O=C1C(O)=C([C@H]2CC[C@H](c3ccc(Cl)cc3)CC2)C(=O)c2ccccc21 [Atovaquone]
[1]; [6]
  B-score binding assay: 0.68
[2]; [7]
  B-score functional assay: -0.283
[2]; [8]
  Ranking score: 659.659

## COc1ccc(CC2c3cc(OC)c(OC)cc3CC[N+]2(C)CCC(=O)OCCCCCOC(=O)CC[N+]2(C)CCc3cc(OC)c(OC)cc3C2Cc2ccc(OC)c(OC)c2)cc1OC (stereo not drawn) [Atracurium besylate]
[1]; [9]
  B-score binding assay: 0.189
[2]; [10]
  B-score functional assay: 2.141
[2]; [11]
  Ranking score: 978.724

## CC(=O)OC[C@H]1O[C@@H]([S-])[C@H](OC(C)=O)[C@@H](OC(C)=O)[C@@H]1OC(C)=O.CCP(CC)CC.[Au+] [Auranofin]
[1]; [6]
  B-score binding assay: -0.068
[2]; [7]
  B-score functional assay: 0.729
[2]; [8]
  Ranking score: 748.559

## Nc1ncn([C@@H]2O[C@H](CO)[C@@H](O)[C@H]2O)c(=O)n1 [Azacytidine-5]
[1]; [9]
  B-score binding assay: 1.257
[2]; [10]
  B-score functional assay: 0.011
[2]; [11]
  Ranking score: 847.665

## Nc1nc(O)c2[nH]nnc2n1 [Azaguanine-8]
[1]; [9]
  B-score binding assay: 0.825
[2]; [10]
  B-score functional assay: 3.711
[2]; [11]
  Ranking score: 1120.13

## O=C(CCCN1CCN(c2ccccn2)CC1)c1ccc(F)cc1 [Azaperone]
[1]; [9]
  B-score binding assay: 0.326
[2]; [10]
  B-score functional assay: 0.852
[2]; [11]
  Ranking score: 931.399

## CCCC1C(=O)N2C(N(C)C)=Nc3ccc(C)cc3N2C1=O (stereo not drawn) [Azapropazone]
[1]
  B-score binding assay: -1.852
[2]
  B-score functional assay: -0.788
  Ranking score: 190.672

## CN1CCC(=C2c3ccccc3CCc3cccnc32)CC1 [Azatadine maleate]
[1]; [9]
  B-score binding assay: 1.844
[2]; [10]
  B-score functional assay: 0.678
[2]; [11]
  Ranking score: 1070.86

## Cn1cnc([N+](=O)[O-])c1Sc1ncnc2nc[nH]c12 [Azathioprine]
[1]; [9]
  B-score binding assay: 1.035
[2]; [10]
  B-score functional assay: 1.292
[2]; [11]
  Ranking score: 1083.5

## CN1CCCC(n2nc(Cc3ccc(Cl)cc3)c3ccccc3c2=O)CC1 (stereo not drawn) [Azelastine HCl]
[1]; [9]
  B-score binding assay: 0.157
[2]; [10]
  B-score functional assay: 1.435
[2]; [11]
  Ranking score: 940.553

## CC[C@H]1OC(=O)[C@H](C)[C@@H](O[C@H]2C[C@@](C)(OC)[C@@H](O)[C@H](C)O2)[C@H](C)[C@@H](O[C@@H]2O[C@H](C)C[C@H](N(C)C)[C@H]2O)[C@](C)(O)C[C@@H](C)CN(C)[C@H](C)[C@@H](O)[C@]1(C)O [Azithromycin]
[1]; [9]
  B-score binding assay: 2.513
[2]; [10]
  B-score functional assay: 0.119
[2]; [11]
  Ranking score: 972.082

## C[C@H]1[C@H](NC(=O)/C(=N\OC(C)(C)C(=O)O)c2csc(N)n2)C(=O)N1S(=O)(=O)O [Aztreonam]
[1]; [9]
  B-score binding assay: 0.858
[2]; [10]
  B-score functional assay: 1.332
[2]; [11]
  Ranking score: 1061.36

## O=C([O-])CCNC(=O)c1ccc(/N=N/c2ccc(O)c(C(=O)[O-])c2)cc1.[Na+].[Na+] [Balsalazide Sodium]
[1]; [3]
  B-score binding assay: -0.506
[2]; [4]
  Ranking score: 403.097
[2]; [5]
  B-score functional assay: -0.35

## CCOC(=O)[C@H](CCc1ccccc1)N[C@H]1CCc2ccccc2N(CC(=O)O)C1=O [Benazepril HCl]
[1]; [9]
  B-score binding assay: 0.109
[2]; [10]
  B-score functional assay: 1.384
[2]; [11]
  Ranking score: 918.755

Reference: PMC5681660, “Reduced hepatitis B and D viral entry using clinically applied drugs as novel inhibitors of the bile acid transporter NTCP” (Scientific Reports, 2017)
